These results are taken from PMC8537458, “Anti-Inflammatory Azaphilones from the Edible Alga-Derived Fungus Penicillium sclerotiorum” (Marine Drugs, 2021).

What is called IC50 is the concentration at which inhibition is half-maximal. A higher IC50 goes with a need for much substance.

SMILES strings stand for the structures. “Also recorded” adds a separate entry of the source. Bounds are passed on as bounds.

Assay type in all cases: cell-based
The subject of series [1] is NFκB responsive element luciferase reporter in HEK293A cells. Nature of the series: NFκB transcriptional activity reporter assay. The note with it: 20 ng/mL TNF-α, 24 h, n = 6. As for the experimental part:
(§1) Reporter plasmids (Promega, Madison, WI, USA) with luciferase driven by NFκB or SMAD responsive elements were stably established in HEK293A cells and maintained by a puromycin-containing culture medium. Chemiluminescence levels represent the luciferase expression was determined by the ONE-Glo reagent (Promega, USA). The fold change of each group to the DMSO vehicle control group was calculated.
(§2) Statistical analysis was conducted via a one-tailed unpaired t-test in comparison compound treating group with the group only treated with TNF-α or TGF-β by Microsoft Excel software. The significance was annotated on plots of the result, * for p < 0.05, ** for p < 0.01, and *** for p < 0.001.

Series [2] deals with phospho-NFκB p65(S536). Nature of the series: TNF-α-induced NFκB phosphorylation by immunoblotting. The note with it: 20 ng/mL TNF-α, 30 min, THP-1 cells, n = 3. As for the experimental part:
(§3) THP-1 monocyte cell line that was gifted from Prof. Tsung-Hsien Chang (National Defense Medical Center, Taiwan) was used to examine for TNF-α-induced NFκB phosphorylation; CCD966SK fibroblast cell line that purchased from Bioresource Collection and Research Centre (BCRC; Taiwan) was used to examine for TGF-β-induced Smad2/3 phosphorylation. The procedure of protein preparation, separation, blotting, and detection was conducted referred to previously. The primary antibodies against phospho-NFκB p65(S536), NFκB p65, phospho-Smad 2(S465/467)/Smad 3(S423/425), and Smad 2/3 were purchased from Cell Signaling (USA). The level of Gapdh expression served as an internal control for protein loading. The annotated number represents the quantified level from normalized by both NFκB p65/Smad 2/3 and Gapdh and calculated the fold change phospho-NFκB or phospho-Smad 2/3 to their DMSO vehicle control group by ImageJ software. IκB/IKK inhibitor BAY 11-7082 (Cayman) and TGFβRI inhibitor LY3200882 (Medchemexpres) as positive controls.
as §2

Series [3] has as its system SMAD responsive element luciferase reporter in HEK293A cells. Put plainly: SMAD transcriptional activity reporter assay. The note with it: 20 ng/mL TGF-β, 24 h. As for the experimental part: as §1, §2
On the technique in general: Reporter assays use an easily measured gene product as a stand-in for the process of interest.

Series [4] can be described thus: MTT cytotoxicity assay, summary over the cell panel. The conditions noted are these: human; general density of 1 × 10^4/96-well; most cells / various cancer cells. How it is done: (§4) The cell lines A549, MCF-7, MDA-MB-231, SH-SY5Y, and WI-38 were purchased from Bioresource Collection and Research Centre (BCRC; Taiwan). […] Chin-Chung Wu (Kaohsiung Medical University, Taiwan), and HCT15 and HCT116 cells were given by Prof. Chen-Yang Shen (Academia Sinica, Taiwan). 1 × 10^3 or 1 × 10^4 cells were seeded in a 96-well one day before compounds treatment.
In general terms: Formazan colour is commonly taken as a measure of viable cells.

A short description of series [5]: MTT cytotoxicity assay. The note with it: human, SH-SY5Y neuroblastoma cells. As for the experimental part: as §4
Series [6] concerns SH-SY5Y. Nature of the series: MTT cytotoxicity assay. The conditions noted are these: among seven cancer and one fibroblast cell lines. As for the experimental part: as §4
For series [7], the system named is phospho-Smad 2(S465/467)/Smad 3(S423/425). Put plainly: TGF-β-induced Smad2/3 phosphorylation by immunoblotting. The conditions noted are these: 20 ng/mL TGF-β, 30 min, CCD966SK fibroblasts, n = 3. As for the experimental part:
as §3, §2
(In general: Immunoblotting shows a protein as a band on a membrane.)

With `Cc1ccc(S(=O)(=O)/C=C/C#N)cc1` [BAY 11-7082, reference compound], the “NFκB transcriptional activity by reporter assay” value (from here on “NFκB transcriptional activity”) in series [1] (10 μM positive control) is “alter”. The “TNF-α-induced NFκB phosphorylation” value in series [2] (10 μM positive control) was “significantly reduce”.

`CCC(C)C(O)C(C)(O)C=CC1=CC2=C(Cl)C(=O)C(C)(O)C(OC(C)=O)C2CO1` (stereo not drawn) [Compound 1, 8a-epi-hypocrellone A]: in series [3] (20 μM compound, n = 6), the “TGF-β-stimulated SMAD transcriptional activity” value is listed as “increased”. In addition, in series [1] (20 μM compound), the “NFκB transcriptional activity” value is listed as “did not change; also recorded: remains”. For the same molecule, the “TNF-α-induced NFκB phosphorylation” value in series [2] (20 μM compound) is “inhibit; also recorded: significantly reduce”. Moreover, the IC50 at 48 h was over 100 µM in series [4], 35.6 µM in series [5] (general density 1 × 10^4/96-well (Table 2)) and 26.8 µM in series [5] (very low density 1 × 10^3/96-well (Table 3)). For the same molecule, the “selective toxicity toward SH-SY5Y” value in series [6] was “selective toxicity”.

For `CCC(C)C(O)C(C)(O)C=CC1=CC2=C(Cl)C(=O)C(C)(O)C(OC(C)=O)C2CO1` (stereo not drawn) [Compound 2, 8a-epi-eupenicilazaphilone C], in series [7] (20 μM compound), the “TGF-β-induced Smad2/3 phosphorylation” value was “significantly increase; also recorded: promote”. Moreover, the “TGF-β-stimulated SMAD transcriptional activity” value in series [3] (20 μM compound, n = 6) is on record as “promote; also recorded: increased”.

In the case of `CC[C@H](C)[C@@H](O)[C@](C)(O)/C=C/C1=CC2=C(Cl)C(=O)[C@](C)(O)[C@H](OC(C)=O)[C@H]2CO1` [Compound 3, hypocrellone A], in series [7] (20 μM compound), the “TGF-β-induced Smad2/3 phosphorylation” value was “decrease”. Further, the “NFκB transcriptional activity” value in series [1] (20 μM compound) was “did not change; also recorded: remains”. Besides, in series [2] (20 μM compound), the “TNF-α-induced NFκB phosphorylation” value was “inhibit; also recorded: significantly reduce”. In addition, the IC50 at 48 h in series [4] was over 100 µM.

As for `CC[C@H](C)[C@@H](O)[C@@](C)(O)/C=C/C1=CC2=C(Cl)C(=O)[C@](C)(O)[C@H](OC(C)=O)[C@H]2CO1` [Compound 4, eupenicilazaphilone C], the “TGF-β-stimulated SMAD transcriptional activity” value in series [3] (20 μM compound, n = 6) is “increased”. This molecule also yielded an IC50 at 48 h in series [4] of over 100 µM.

`CC[C@H](C)/C=C(C)/C=C/c1cc(O)c(C)c(O)c1C=O` [Compound 5, ((1E,3E)-3,5-dimethylhepta-1,3-dien-1-yl)-2,4-dihydroxy-3-methylbenzaldehyde]: in series [4], the IC50 at 48 h was over 100 µM.

Consider `CC[C@H](C)/C=C(C)/C=C/C1=CC2=C(Cl)C(=O)[C@](C)(OC(C)=O)C(=O)C2=CO1` [Compound 6, sclerotiorin], for which the “TGF-β-induced Smad2/3 phosphorylation” value in series [7] (20 μM compound) is “inhibited”. The “TGF-β-stimulated SMAD transcriptional activity” value in series [3] (20 μM compound, n = 6) is “inhibited; also recorded: decreased”. The IC50 at 48 h in series [4] was over 100 µM.

As for `CC[C@H](C)/C=C(C)/C=C/C1=CC2=C(Cl)C(=O)[C@](C)(O)[C@H](OC(C)=O)[C@H]2CO1` [Compound 7, isochromophilone IV], the “NFκB transcriptional activity” value in series [1] (20 μM compound) is given as “did not change; also recorded: remains”. Also, the “TNF-α-induced NFκB phosphorylation” value in series [2] (20 μM compound) is on record as “inhibit; also recorded: significantly reduce”. Further, the IC50 at 48 h in series [4] is over 100 µM.

With `CC(C)(O)c1cc(Nc2cc(Oc3cn(C4CC4)nc3C3CCOCC3)ccn2)ccn1` [LY3200882, reference compound], the “TGF-β-induced Smad2/3 phosphorylation” value in series [7] (1 μM positive control, listed as TGFβRI inhibitor) is reported as “trend toward a decrease”. In addition, the “TGF-β-stimulated SMAD transcriptional activity” value in series [3] (1 μM positive control, n = 6, listed as TGFβRI inhibitor) is “decreased”.

On to `COc1cccc2c1C(=O)c1c(O)c3c(c(O)c1C2=O)C[C@@](O)(C(=O)CO)C[C@@H]3O[C@H]1C[C@H](N)[C@H](O)[C@H](C)O1` [doxorubicin, reference compound], for which the 50% inhibitory concentration (IC50) at 48 h in series [4] fell in the range of 0.36 to 3.7 µM.
